Data taken from ChEMBL document CHEMBL5537166, “PROTACs Targeting BRM (SMARCA2) Afford Selective In Vivo Degradation over BRG1 (SMARCA4) and Are Active in BRG1 Mutant Xenograft Tumor Models” (J Med Chem, 2024).

What was measured:
NCI-H1944 = assay: Antiproliferative activity against BRM-dependent human NCI-H1944 cells assessed as growth inhibition incubated for 7 days by celltiter glo 2.0 assay; type: functional; details: NCI-H1944, 168 h, time 7 day
[1] = molecular target: T1, SWI/SNF-related matrix-associated actin-dependent regulator of chromatin subfamily A member 2 (Homo sapiens, UniProt P51531); assay: Binding affinity to his-tagged BRM bromodomain (unknown origin) assessed as dissociation constant
[2] = molecular target: T1, SWI/SNF-related matrix-associated actin-dependent regulator of chromatin subfamily A member 2; assay: Binding affinity to his-tagged BRM bromodomain (unknown origin) by alpha-LISA assay
Calu-6 = assay: Antiproliferative activity against human Calu-6 cells assessed as growth inhibition incubated for 7 days by celltiter glo 2.0 assay; type: functional; details: Calu-6, 168 h, time 7 day
[3] = molecular target: T2, von Hippel-Lindau disease tumor suppressor/SWI/SNF-related matrix-associated actin-dependent regulator of chromatin subfamily A member 2 (Homo sapiens, UniProt P51531+P40337); assay: PROTAC activity at VHL/BRM in human SW1573 cells assessed as induction of […] incubated for 22 hrs by Western blotting analysis; type: cell-based
Target sequence in this assay (P51531 whole entry): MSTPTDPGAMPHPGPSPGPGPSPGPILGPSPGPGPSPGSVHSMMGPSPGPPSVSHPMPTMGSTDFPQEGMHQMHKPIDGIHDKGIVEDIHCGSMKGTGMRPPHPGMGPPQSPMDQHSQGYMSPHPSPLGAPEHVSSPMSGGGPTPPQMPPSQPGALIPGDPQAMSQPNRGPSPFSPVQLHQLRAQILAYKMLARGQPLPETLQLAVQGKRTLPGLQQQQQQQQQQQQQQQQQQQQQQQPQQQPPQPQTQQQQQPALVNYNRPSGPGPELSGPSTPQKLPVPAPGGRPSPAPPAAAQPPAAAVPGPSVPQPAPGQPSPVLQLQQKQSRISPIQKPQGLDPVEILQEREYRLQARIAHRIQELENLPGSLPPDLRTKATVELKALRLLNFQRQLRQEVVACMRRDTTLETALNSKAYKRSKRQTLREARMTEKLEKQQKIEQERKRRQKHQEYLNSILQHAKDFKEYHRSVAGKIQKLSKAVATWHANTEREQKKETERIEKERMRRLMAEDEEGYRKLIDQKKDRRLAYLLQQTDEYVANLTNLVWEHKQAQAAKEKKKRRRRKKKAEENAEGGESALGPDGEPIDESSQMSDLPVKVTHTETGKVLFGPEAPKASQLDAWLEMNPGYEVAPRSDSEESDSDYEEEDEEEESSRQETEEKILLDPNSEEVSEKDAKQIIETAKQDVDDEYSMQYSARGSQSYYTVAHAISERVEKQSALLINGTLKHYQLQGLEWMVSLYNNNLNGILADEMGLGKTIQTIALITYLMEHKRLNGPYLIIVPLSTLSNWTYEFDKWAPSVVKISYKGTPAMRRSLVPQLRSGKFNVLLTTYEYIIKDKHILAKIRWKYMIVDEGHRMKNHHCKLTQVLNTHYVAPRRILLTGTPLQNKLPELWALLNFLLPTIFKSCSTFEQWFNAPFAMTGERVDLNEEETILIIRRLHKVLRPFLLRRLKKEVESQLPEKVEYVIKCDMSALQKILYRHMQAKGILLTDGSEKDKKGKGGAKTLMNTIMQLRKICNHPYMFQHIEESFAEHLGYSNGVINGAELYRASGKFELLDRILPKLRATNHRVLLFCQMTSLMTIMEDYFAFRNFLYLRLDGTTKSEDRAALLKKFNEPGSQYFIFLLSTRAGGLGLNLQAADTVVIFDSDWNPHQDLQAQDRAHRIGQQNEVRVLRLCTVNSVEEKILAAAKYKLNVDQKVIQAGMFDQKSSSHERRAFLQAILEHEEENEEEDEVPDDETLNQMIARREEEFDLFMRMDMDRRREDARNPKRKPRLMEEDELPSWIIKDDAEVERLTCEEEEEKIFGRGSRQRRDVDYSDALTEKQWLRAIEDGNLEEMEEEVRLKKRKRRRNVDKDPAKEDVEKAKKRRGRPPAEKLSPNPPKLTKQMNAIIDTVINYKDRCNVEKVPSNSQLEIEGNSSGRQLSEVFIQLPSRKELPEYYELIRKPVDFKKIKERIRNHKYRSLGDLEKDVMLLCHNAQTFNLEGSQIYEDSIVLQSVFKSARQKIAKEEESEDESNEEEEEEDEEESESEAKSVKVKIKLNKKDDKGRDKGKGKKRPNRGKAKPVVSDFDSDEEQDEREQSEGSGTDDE
Target sequence in this assay (P40337 whole entry): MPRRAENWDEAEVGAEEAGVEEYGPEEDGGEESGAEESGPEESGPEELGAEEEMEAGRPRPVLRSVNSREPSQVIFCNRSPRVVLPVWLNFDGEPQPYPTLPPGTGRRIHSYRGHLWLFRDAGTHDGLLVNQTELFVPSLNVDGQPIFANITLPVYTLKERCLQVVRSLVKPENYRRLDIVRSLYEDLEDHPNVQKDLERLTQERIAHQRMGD

[4] = molecular target: von Hippel-Lindau disease tumor suppressor/SWI/SNF-related matrix-associated actin-dependent regulator of chromatin subfamily A member 4 (Homo sapiens, UniProt P51532+P40337); assay: PROTAC activity at VHL/ BRG1 in human SW1573 cells assessed as induction of BRG1 degradation incubated for 22 hrs by Western blotting analysis; type: cell-based
[5] = Metabolic stability in human liver microsome assessed as hepatic extraction ratio measured upto 60 mins by LC-MS/MS analysis; type: ADME; details: liver microsomes
[6] = Plasma protein binding in mouse incubated for 15 mins by LC-MS/MS analysis; type: ADME, cell-free; details: read-out: PPB (converted)
[7] = Clearance in mouse at 1 mg/kg, iv measured upto 60 mins by LC-MS/MS analysis; type: ADME, organism-based; details: in vivo, 1 h
[8] = Half life in mouse at 1 mg/kg, iv measured upto 60 mins by LC-MS/MS analysis; type: ADME, organism-based; details: in vivo
Mus musculus [9] = assay: In-vivo PROTAC activity at BRM/VHL in CD-1 mouse xenografted with human HCC2302 cells at 20 mg/kg, iv measured for 96 hrs; type: functional
Mus musculus [10] = assay: In-vivo PROTAC activity at BRM/VHL in CD-1 mouse xenografted with Murine stromal cell line at 20 mg/kg, iv measured for 96 hrs; type: functional
[11] = Drug concentration in mouse tumor at 20 mg/kg, ip measured for 96 hrs; type: ADME, organism-based, Neoplasm; details: read-out: Ct
Homo sapiens [12] = organism: Homo sapiens; assay: Ratio of DC50 for VHL/ BRG1 in human SW1573 cells to DC50 for VHL/BRM in human SW1573 cells; type: cell-based
[13] = Drug concentration in mouse plasma measured for 24 hrs; type: ADME, cell-free
Homo sapiens [14] = organism: Homo sapiens; assay: Ratio of binding affinity to VHL/BRM bromodomain (unknown origin) assessed as ternary complex association half life by SPR analysis to binding affinity to VHL/ BRG1 bromodomain (unknown origin) assessed as ternary complex association half life by SPR analysis
[15] = molecular target: T2, von Hippel-Lindau disease tumor suppressor/SWI/SNF-related matrix-associated actin-dependent regulator of chromatin subfamily A member 2
Target sequence in this assay (P40337 whole entry, looked up): as the sequence (P40337 whole entry) above
Target sequence in this assay (P51531 whole entry, looked up): as the sequence (P51531 whole entry) above

T1 sequence (P51531 whole entry): as above
von Hippel-Lindau disease tumor suppressor/SWI/SNF-related matrix-associated actin-dependent regulator of chromatin subfamily A member 4, sequence (P51532 whole entry): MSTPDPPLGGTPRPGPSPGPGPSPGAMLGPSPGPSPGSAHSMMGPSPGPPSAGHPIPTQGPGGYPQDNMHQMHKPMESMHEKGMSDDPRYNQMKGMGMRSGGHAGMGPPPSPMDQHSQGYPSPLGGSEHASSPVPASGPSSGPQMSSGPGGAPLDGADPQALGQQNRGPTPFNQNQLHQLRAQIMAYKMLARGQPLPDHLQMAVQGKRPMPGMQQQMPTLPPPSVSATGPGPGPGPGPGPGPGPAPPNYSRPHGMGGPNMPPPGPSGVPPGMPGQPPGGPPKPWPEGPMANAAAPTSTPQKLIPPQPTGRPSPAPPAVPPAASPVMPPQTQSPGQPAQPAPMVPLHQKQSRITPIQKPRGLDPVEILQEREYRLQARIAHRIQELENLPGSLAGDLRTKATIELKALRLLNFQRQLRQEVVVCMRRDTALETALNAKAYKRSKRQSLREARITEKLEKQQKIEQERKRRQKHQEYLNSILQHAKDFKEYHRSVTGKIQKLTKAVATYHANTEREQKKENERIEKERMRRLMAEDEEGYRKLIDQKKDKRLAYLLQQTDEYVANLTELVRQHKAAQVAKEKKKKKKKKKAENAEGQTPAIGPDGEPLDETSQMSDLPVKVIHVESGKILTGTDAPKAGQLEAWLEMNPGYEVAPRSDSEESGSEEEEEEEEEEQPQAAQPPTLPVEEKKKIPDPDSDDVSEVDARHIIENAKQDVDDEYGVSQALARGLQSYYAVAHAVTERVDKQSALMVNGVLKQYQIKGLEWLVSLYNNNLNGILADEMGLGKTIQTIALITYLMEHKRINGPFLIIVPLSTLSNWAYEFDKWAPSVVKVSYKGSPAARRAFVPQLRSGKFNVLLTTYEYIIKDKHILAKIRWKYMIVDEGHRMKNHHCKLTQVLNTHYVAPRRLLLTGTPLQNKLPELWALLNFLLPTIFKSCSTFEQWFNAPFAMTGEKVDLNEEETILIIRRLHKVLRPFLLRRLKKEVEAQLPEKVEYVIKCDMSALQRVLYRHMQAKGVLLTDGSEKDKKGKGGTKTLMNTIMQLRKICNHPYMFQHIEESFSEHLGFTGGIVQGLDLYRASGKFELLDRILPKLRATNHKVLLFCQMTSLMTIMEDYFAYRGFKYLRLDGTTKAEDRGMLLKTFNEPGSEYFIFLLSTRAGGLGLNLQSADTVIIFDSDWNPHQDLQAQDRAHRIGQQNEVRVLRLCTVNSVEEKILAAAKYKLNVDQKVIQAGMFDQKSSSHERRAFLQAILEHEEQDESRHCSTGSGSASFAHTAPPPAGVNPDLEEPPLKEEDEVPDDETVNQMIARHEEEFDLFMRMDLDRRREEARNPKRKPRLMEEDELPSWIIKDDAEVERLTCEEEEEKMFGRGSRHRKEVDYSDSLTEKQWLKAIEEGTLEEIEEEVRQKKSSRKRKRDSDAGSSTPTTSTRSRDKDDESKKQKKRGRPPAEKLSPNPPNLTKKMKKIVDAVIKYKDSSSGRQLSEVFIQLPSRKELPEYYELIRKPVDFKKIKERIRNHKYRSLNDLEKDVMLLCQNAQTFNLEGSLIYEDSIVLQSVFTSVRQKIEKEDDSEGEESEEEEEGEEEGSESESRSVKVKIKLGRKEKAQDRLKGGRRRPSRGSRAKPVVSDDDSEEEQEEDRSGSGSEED
von Hippel-Lindau disease tumor suppressor/SWI/SNF-related matrix-associated actin-dependent regulator of chromatin subfamily A member 4, sequence (P40337 whole entry): as the sequence (P40337 whole entry) above

Structure (SMILES) | GI50 (NCI-H1944) [nM] | Kd [1] [nM] | IC50 [2] [nM] | GI50 (Calu-6) [nM] | DC50 [3] [nM] | DC50 [4] [nM] | hepatic extraction ratio at 1 h [5] | fraction unbound at 0.25 h [6] | clearance [7] [mL/min/kg] | half-life [8] [h] | Activity (Mus musculus [9]) [%] | Activity (Mus musculus [10]) [%] | concentration at 96 h [11] [ng/g] | Ratio (Homo sapiens [12]) | concentration at 24 h [13] [nM] | Ratio (Homo sapiens [14]) | T1/2 [15] [s]
Cc1ncsc1-c1ccc([C@H](C)NC(=O)[C@@H]2C[C@@H](O)CN2C(=O)[C@@H](c2cc(OCCN3CCC(O[C@H]4C[C@H](Oc5cc(N6C7CCC6CN(c6cc(-c8ccccc8)nnc6N)C7)ccn5)C4)CC3)no2)C(C)C)cc1 | > 5000 | 10300 | – | – | – | – | – | – | – | – | – | – | – | – | – | – | –
Cc1ncsc1-c1ccc([C@H](C)NC(=O)[C@@H]2C[C@H](O)CN2C(=O)[C@@H](c2cc(N3CCC(CN4CCC(O[C@H]5C[C@H](Oc6cc(N7C8CCC7CN(c7cc(-c9ccccc9O)nnc7N)C8)ccn6)C5)CC4)CC3)no2)C(C)C)cc1 | > 300 | – | – | – | – | – | – | – | – | – | – | – | – | – | – | – | –
Cc1ncsc1-c1ccc([C@H](C)NC(=O)[C@@H]2C[C@@H](O)CN2C(=O)[C@@H](c2cc(N3CCC(CN4CCC(O[C@H]5C[C@H](Oc6cc(N7C8CCC7CN(c7cc(-c9ccccc9)nnc7N)C8)ccn6)C5)CC4)CC3)no2)C(C)C)cc1 | > 5000 | 8540 | – | – | – | – | – | – | – | – | – | – | – | – | – | – | –
Cc1ncsc1-c1ccc([C@H](C)NC(=O)[C@@H]2C[C@H](O)CN2C(=O)[C@@H](c2cc(OCCN3CCC(O[C@H]4C[C@H](Oc5cc(N6C7CCC6CN(c6cc(-c8ccccc8O)nnc6N)C7)ccn5)C4)CC3)no2)C(C)C)cc1 | > 300 | – | – | – | – | – | – | – | – | – | – | – | – | – | – | – | –
COc1cc(N2C3CCC2CN(c2cc(-c4ccccc4O)nnc2N)C3)ccn1 | > 300 | – | 1.2 | > 300 | – | – | – | – | – | – | – | – | – | – | – | – | –
Cc1ncsc1-c1ccc([C@H](C)NC(=O)[C@@H]2C[C@@H](O)CN2C(=O)[C@@H](c2cc(N3CCN(C[C@H]4C[C@H](Oc5cc(N6C7CCC6CN(c6cc(-c8ccccc8O)nnc6N)C7)ccn5)C4)CC3)no2)C(C)C)cc1 | 0.45 | – | – | 6.8 | 0.09 | 1.3 | 0.27 | 0.011 | 11 | 3.7 | 87 | 53 | 75 | – | – | – | –
Cc1ncsc1-c1ccc([C@H](C)NC(=O)[C@@H]2C[C@@H](O)CN2C(=O)[C@@H](c2cc(N3CCC(O[C@H]4C[C@H](Oc5cc(N6C7CCC6CN(c6cc(-c8ccccc8O)nnc6N)C7)ccn5)C4)CC3)no2)C(C)C)cc1 | 0.3 | – | – | 4.4 | 0.14 | 1.8 | 0.14 | 0.019 | 9.2 | 1.4 | 70 | 22 | 175 | 13 | 112 | – | –
Cc1ncsc1-c1ccc(CNC(=O)[C@@H]2C[C@@H](O)CN2C(=O)[C@@H](NC(=O)COCCOCCOCCOc2cc(N3C4CCC3CN(c3cc(-c5ccccc5O)nnc3N)C4)ccn2)C(C)(C)C)cc1 | – | – | – | – | 32 | 703 | – | – | – | – | – | – | – | 7.8 | – | – | –
Cc1ncsc1-c1ccc([C@H](C)NC(=O)[C@@H]2C[C@@H](O)CN2C(=O)[C@@H](c2cc(OCCN3CCN(CCOc4cc(N5C6CCC5CN(c5cc(-c7ccccc7O)nnc5N)C6)ccn4)CC3)no2)C(C)C)cc1 | 0.17 | – | – | 7 | 0.068 | 1.5 | 0.72 | 0.016 | – | – | – | – | – | 22 | – | 0.33 | 6
COCCOc1cc(N2C3CCC2CN(c2cc(-c4ccccc4O)nnc2N)C3)ccn1 | – | – | 2.7 | – | – | – | – | – | – | – | – | – | – | – | – | – | –
Cc1ncsc1-c1ccc(CNC(=O)[C@@H]2C[C@@H](O)CN2C(=O)[C@@H](c2cc(OCCN3CCN(CCOc4cc(N5C6CCC5CN(c5cc(-c7ccccc7O)nnc5N)C6)ccn4)CC3)no2)C(C)C)cc1 | 3.6 | – | – | 62 | 0.39 | 9.5 | 0.65 | 0.015 | – | – | – | – | – | – | – | – | –
Cc1ncsc1-c1ccc([C@H](C)NC(=O)[C@@H]2C[C@@H](O)CN2C(=O)[C@@H](c2cc(N3CCC(CN4CCC(Oc5cc(N6C7CCC6CN(c6cc(-c8ccccc8O)nnc6N)C7)ccn5)CC4)CC3)no2)C(C)C)cc1 | 0.23 | – | – | 3.7 | 0.053 | 0.99 | 0.41 | 0.006 | 6.7 | 6.7 | 83 | 59 | 774 | – | – | – | –
Cc1ncsc1-c1ccc([C@H](C)NC(=O)[C@@H]2C[C@@H](O)CN2C(=O)[C@@H](c2cc(OCC#Cc3ccc(O[C@H]4C[C@H](Oc5cc(N6C7CCC6CN(c6cc(-c8ccccc8O)nnc6N)C7)ccn5)C4)cn3)no2)C(C)C)cc1 | 0.7 | – | – | 28 | 27 | 5.1 | 0.15 | 0.016 | 22 | 1.5 | – | – | – | 19 | 129 | – | –
COc1cc(N2CCN(c3cc(-c4ccccc4O)nnc3N)CC2)ccn1 | > 300 | – | 18 | > 300 | – | – | – | – | – | – | – | – | – | – | – | – | –
Cc1ncsc1-c1ccc(CNC(=O)[C@@H]2C[C@@H](O)CN2C(=O)[C@@H](c2cc(OCCOCCOCCOc3cc(N4C5CCC4CN(c4cc(-c6ccccc6O)nnc4N)C5)ccn3)no2)C(C)C)cc1 | – | – | – | – | 0.76 | 5.9 | – | – | – | – | – | – | – | 2.2 | – | – | –
Cc1ncsc1-c1ccc([C@H](C)NC(=O)[C@@H]2C[C@@H](O)CN2C(=O)[C@@H](c2cc(OCCN3CCN(CCOc4cc(N5C6CCC5CN(c5cc(-c7ccccc7O)nnc5N)C6)ccn4)C[C@@H]3C)no2)C(C)C)cc1 | 0.72 | – | – | 38 | 0.11 | 2.7 | 0.83 | – | – | – | – | – | – | 25 | – | – | –
Cc1ncsc1-c1ccc([C@H](C)NC(=O)[C@@H]2C[C@@H](O)CN2C(=O)[C@@H](c2cc(N3CCN(CC4CCN(C[C@H]5C[C@H](Oc6cc(N7C8CCC7CN(c7cc(-c9ccccc9O)nnc7N)C8)ccn6)C5)CC4)CC3)no2)C(C)C)cc1 | 0.72 | – | – | 10 | 0.062 | 1.4 | 0.15 | 0.035 | 12 | 17 | 95 | 83 | – | – | – | – | –
Cc1ncsc1-c1ccc([C@H](C)NC(=O)[C@@H]2C[C@@H](O)CN2C(=O)[C@@H](c2cc(N3CCN(CCN4CCC(O[C@H]5C[C@H](Oc6cc(N7C8CCC7CN(c7cc(-c9ccccc9O)nnc7N)C8)ccn6)C5)CC4)CC3)no2)C(C)C)cc1 | 1.3 | – | – | 11 | 0.085 | 3.2 | 0.4 | 0.034 | 9.6 | 13 | 56 | 28 | 840 | 38 | 108 | – | –
Cc1ncsc1-c1ccc([C@H](C)NC(=O)[C@@H]2C[C@@H](O)CN2C(=O)[C@@H](c2cc(OCCN3CCN(CCOc4cc(N5C6CCC5CN(c5cc(-c7ccccc7O)nnc5N)C6)ccn4)[C@H](C)C3)no2)C(C)C)cc1 | 0.26 | – | – | 12 | 0.055 | 0.71 | 0.83 | 0.015 | – | – | 0 | 0 | 76 | 13 | 22 | – | –
